Reference: paper PMC7191558, “Use of BODIPY-Labeled ATP Analogues in the Development and Validation of a Fluorescence Polarization-Based Assay for Screening of Kinase Inhibitors” (ACS Omega, 2020)

Biological target: T1, Protein Kinase A catalytic subunit (PKA) (Bos taurus, UniProt P00517)
T1 construct: gene PRKACA; catalytic subunit (from bovine heart, Merck)
Experiment: fluorescence polarization competition with BODIPY FL ATP-γ-S
Assay type: binding

Work on CC1CNCCN1S(=O)(=O)c1cccc2cnccc12 (stereo not shown) [H7] yielded an IC50 of ~1130 µM.
